From patent publication US12214076B2, “Drug delivery vehicles for atherosclerosis nanomedicine” (Northwestern University, priority 2019, dated 2025)
Ends that are not written are not given here. Peptide text beside a SMILES is read from it. * marks the point of attachment. Palmitoyl = CCCCCCCCCCCCCCCC(=O)*

Assays:
[1] = TEM characterization of PA nanofibers for diameter and length (Example 3); assay type: physicochemical
Description: Samples at 1 mM in PBS were prepared for TEM by plating on copper supports covered with thin carbon foil 400-mesh that were treated with glow discharge. […] Due to the overlapping fibers, automated tools including FiberApp could not be used to analyze the nanofibers. Instead, the TEM images were analyzed manually for nanofiber diameter and length using ImageJ software. Cryogenic TEM of samples was also performed using a JEOL 1230 at 100 kV accelerating voltage and Gatan 831 CCD camera. […] Samples were prepared at 1 mM in PBS blotted once for 3 seconds before plunging into liquid ethane using a Vitrobot Mark III (FEI) vitrification robot.

[2] = system: atherosclerotic LDLR KO mice; assay: In vivo proof of concept: PA nanofiber localization in aortic root; parameters: species or system mouse; conditions: 24 h after intravenous injection, high fat diet 14 weeks, 6 mg kg-1 PA
Description: Mouse Model of Atherosclerosis and In Vivo Proof of Concept: LDLR-KO mice were fed a high fat “Western” diet (Teklad TD.88137) starting at 4 weeks of age. This diet consisted of 20% fat, 0.2% cholesterol, and 34% high sucrose. LDLR-KO mice fed this diet typically develop severe hypercholesterolemia (>800 mg/dL) and hypertriglyceridemia (>300 mg/dL) after only 2 weeks, and by 12 weeks on the high fat diet, atherosclerotic lesions are detected in the aortic root and aortic arch. After 14 weeks on the high fat diet, mice received intravenous injections of PA nanofibers dissolved in PBS (dorsal penile vein in males) under sterile conditions. Mice were briefly anesthetized for injection with inhaled isoflurane. After injection, mice were monitored and allowed to recover from anesthesia in a heated oxygen chamber. […] PA fluorescence was assessed with the HE CY3 filter (Zeiss filter #43) using excitation and emission wavelengths of 550-575 nm and 605-670 nm, respectively. Nuclear staining was performed with DAPI (4′,6-Diamidino-2-Phenylindole, Dilactate, ThermoFisher, Chicago, IL), and assessed with the DAPI filter (Zeiss filter #49) using excitation and emission wavelengths of 365-395 and 445-450 nm, respectively. Tissue autofluorescence was assessed with the green fluorescent protein filter (Zeiss filter #38) using excitation and emission wavelengths of 470-495 and 525-550 nm, respectively. […]

LDLR KO mice [3] = assay: Atherosclerosis treatment study; assay type: in vivo, mouse
Description: (§1) Mouse model of atherosclerosis: To study atherosclerosis, the LDLR KO mouse was used. LDLR KO mice are fed a high fat “western” diet (Teklad TD.88137) starting at 4 weeks of age. This diet consists of 20% fat, 0.2% cholesterol, and 34% high sucrose. LDLR KO mice fed this diet typically develop severe hypercholesterolemia (>800 mg/dL) and hypertriglyceridemia (>300 mg/dL) after only 2 weeks. By 12 weeks on the high fat diet, atherosclerotic lesions are detected in the aortic root and aortic arch on cryosections stained with Oil Red O (Sigma). Atherosclerosis was quantified in the aortic root as a percentage of the aortic root by taking the atherosclerotic area divided by the total aortic root area. Measurements were made with ImageJ software. All protocols for the animal model and procedures in this manuscript were approved by Northwestern University's Institutional Animal Care and Use Committee.
(§2) Blood samples were collected at the end of the treatment study for toxicology analysis. Mice were euthanized three days after their 16th treatment.
(§3) Tissue processing and imaging: Mice were sacrificed and euthanized under inhaled isoflurane anesthesia by diaphragm disruption and exsanguination. Phlebotomy was performed through direct right ventricular cardiac puncture using a 1 mL syringe and 25 G needle. Perfusion was performed through left ventricular cardiac puncture with 10 mL PBS and 10 mL 10% sucrose solution. The lungs, liver, spleen, kidney, aortic root, aortic arch, and descending aorta were harvested and stored in 10% sucrose for 20 minutes. Organs and vessels were then flash-frozen in Optimal Cutting Temperature embedding medium 4583 (Tissue-Tek®) with liquid nitrogen. Frozen specimens were stored at −80° C. and cryosectioned at […]. Confocal microscopy was performed on a Nikon AIR microscope. Two sets of images were acquired with a 10× Plan Fluor NA 0.3 objective. PAs were identified through quantification of the Alexa Fluor® 546 conjugated dye with 561 nm excitation and a 600/50 nm emission filter.
(§4) Images were acquired with spectral detection and spectrally unmixed to accurately separate green autofluorescence from the red Alexa Fluor® 546 signal. Brightfield and fluorescent microscopy were performed using a Zeiss Axio Imager.A2 microscope with AxioVision software (release 4.8.2, 06-2010). All confocal and fluorescent sections were mounted with ProGold Diamond mounting media (Sigma). Slides were stained with Oil Red O to image and quantify atherosclerosis under brightfield microscopy. The elastic laminae were identified using the green fluorescent protein (GFP) filter with an exposure time of 3500 ms under 5× magnification. Nanofibers were identified in the aortic root by presence of Alexa Fluor® 546 on the Cy3 filter under 5-10× magnification, and in the internal organs under 20× magnification. Fluorescent pixel quantification in the aortic root and within organs was performed with ImageJ software.
(§5) Statistics: The effect of treatments and sex on atherosclerosis progression in mice was analyzed using one- or two-factor analysis of variance (ANOVA) followed by a post-hoc student's t-test. The toxicological effects of treatments were also analyzed using two-factor ANOVA and a post-hoc student's t-test. Toxicological effects of treatments on liver proteins AST, ALT, and ALP were further analyzed using ordinal logistic regression models of likelihood ratio tests, followed by a post-hoc Wald test

[4] = Treatment study serum chemistry (toxicology analysis); assay type: in vivo, mouse; conditions: mouse, in vivo
Description: as §2, §3, §5

LDLR KO mice [5] = assay: Targeting of atherosclerosis by IV injected ApoA1 PA nanofibers (Example 3); assay type: in vivo, mouse; conditions: within 24 hours after injection, confocal, Alexa Fluor 546
Description: as §1
Injection of PA nanofibers: PA nanofibers were dissolved at 2-4 mg/mL concentration in room temperature phosphate buffered saline (PBS). After 14 weeks on the high fat diet, mice received intravenous injections of PA nanofiber dissolved in PBS (dorsal penile vein in males, retro-orbital injection in females) using a 31 G hypodermic insulin needle on a 0.3 mL syringe under sterile conditions and magnification (NIKON SMZ 645 Zoom Stereomicroscope). Mice were briefly anesthetized for injection with inhaled isoflurane. Mice were monitored and allowed to recover from anesthesia in a heated oxygen chamber.
Dose and concentration study: To determine the optimum concentration for targeting efficacy and safety, LDLR KO mice fed the high fat diet for 14 weeks were injected with PA nanofiber at concentrations of 1 mg/mL, 2 mg/mL, and 4 mg/mL at 8 mg/kg in PBS. Similarly, to determine the optimum dose for targeting efficacy and safety, LDLR KO mice fed the high fat diet for 14 weeks were injected at PA nanofiber doses of 8 mg/kg, 6 mg/kg, 4 mg/kg, 3.3 mg/kg, and 1.7 mg/kg at 2 mg/mL in PBS. Safety, optimum dose, and concentration for targeting was assessed by survival of the animal and fluorescent pixel quantification in the aortic root, liver, lungs, kidneys, and spleen.
as §3
as §4, with “Fluorescent pixel quantification in the aortic root and within organs was performed with ImageJ software.” left out

[6] = read-out: dissociation constant for PEIPC; cited from earlier work
[7] = ROS-Ac2-26 PA cleavage assay with SIN-1; assay type: physicochemical
Description: ROS-Ac2-26 and MMP-Ac2-26 PA cleavage assays: To examine ROS-mediated cleavage, 3-morpholinosydnonimine hydrochloride (SIN-1, Sigma-Aldrich or Abcam) was used. ROS-Ac2-26 PAs were reconstituted to 0.5 mM in phosphate buffer and treated with 100 μM SIN-1 for 24 hours at 37° C. For MMP2/9-mediated cleavage, human recombinant MMP2 (R&D systems, carrier-free) was used, activated with freshly prepared 1 mMp-aminophenylmercuric acetate (APMA, Sigma-Aldrich) for one hour at 37° C. The APMA disrupts the cysteine-zinc bond in MMP2 responsible for enzyme latency by liberation of the sulfhydryl group. 10% MMP-Ac2-26 PA co-assemblies were prepared at 0.5 mM in a cleavage buffer containing 50 mM tricine, 50 mM NaCl, 50 μM ZnCl2, and 10 mM CaCl2) at pH 7.4, and treated with 40 nM human recombinant MMP2 for 24 hours at 37° C. At the end of each time point, the samples were stored at −20° C., effectively stopping the cleavage reactions. Samples were analyzed at room temperature, 0.04-0.3 mg/mL with 0.1% NH4OH using a ThermoFisher Q Exactive HIF-X (ThermoFisher, Bremen, Germany) mass spectrometer coupled with a Waters Acquity H-class liquid chromatograph system. […] All measurements were recorded at a resolution setting of 120,000. […] Injection volume for all samples was […]. Data was analyzed on Xcalibur (ThermoFisher, Breman, Germany).

[8] = 30 measurements from three images
[9] = 30 measurements from three images, listed as Ser PA
[10] = 30 measurements from three images, listed as scrambled

**Q.** For `CCCCCCCCCCCCCCCC(=O)N[C@H](C(=O)N[C@H](C(=O)N[C@@H](C)C(=O)N[C@@H](C)C(=O)N[C@@H](CCC(=O)O)C(=O)N[C@@H](CCC(=O)O)C(=O)N[C@@H](CS)C(=O)N[C@@H](CC(=O)O)C(=O)N[C@@H](Cc1c[nH]c2ccccc12)C(=O)N[C@@H](Cc1ccccc1)C(=O)N[C@@H](C)C(=O)N[C@@H](CCCCN)C(=O)N[C@@H](CC(=O)O)C(=O)N[C@@H](Cc1ccc(O)cc1)C(=O)N[C@@H](Cc1ccccc1)C(=O)N[C@@H](CCCCN)C(=O)N[C@@H](CCCCN)C(=O)N[C@@H](C)C(=O)N[C@@H](Cc1ccccc1)C(=O)N[C@H](C(=O)N[C@@H](CCC(=O)O)C(=O)N[C@@H](CCC(=O)O)C(=O)N[C@@H](Cc1ccccc1)C(=O)N[C@@H](C)C(=O)N[C@@H](CCCCN)C(N)=O)C(C)C)C(C)C)C(C)C` [Scr PA] (Palmitoyl-VVAAEECDWFAKDYFKKAFVEEFAK-NH2), which “Diameter (nm) Median” value [1, 8] is on record?
**A.** 14.2 nm

**Q.** What about the “Length (nm) Average” value [1, 8] of the same compound?
**A.** 403.8 nm

**Q.** What about the “Diameter (nm) Average” value [1, 9] of the same compound?
**A.** 13.8 nm

**Q.** And the “Length (nm) Median” value [1, 9]?
**A.** 257.6 nm

**Q.** And the “Diameter (nm) Average” value [1, 10]?
**A.** 13.8±2.4 nm

**Q.** And the “Length (nm) Median” value [1, 10]?
**A.** 258 nm

**Q.** What about the “localization of nanofibers to areas of atherosclerotic plaque in the aortic root” value [2] of the same compound?
**A.** does not reveal evidence of nanofiber localization

**Q.** And the “atherosclerosis progression in comparison to the PBS control” value (LDLR KO mice [3]; both sexes, twice per week over eight weeks, percent of atherosclerosis in the aortic root)?
**A.** significantly decreased

**Q.** What about the “reduction of atherosclerosis in females in comparison to males” value (LDLR KO mice [3]; mouse, in vivo) of the same compound?
**A.** greater effects upon reducing atherosclerosis in females

**Q.** And the “AST levels in comparison to the PBS control” value [4]?
**A.** no significant differences

**Q.** What about the Creatine [4] of the same compound?
**A.** 0 U/L

**Q.** What about the Sodium [4] of the same compound?
**A.** 138 mmol/L

**Q.** And the “Total Protein” value [4]?
**A.** 5.4 g/dL

**Q.** And the “aspartate aminotransferase (AST) in the blood in comparison to PBS” value [4]?
**A.** significantly elevated levels of aspartate aminotransferase (AST)

**Q.** And the “localization to areas of atherosclerosis” value (LDLR KO mice [5])?
**A.** did not localize to areas of atherosclerosis

**Q.** Which Kd [6] does the source give for “native ApoA1: main protein component of high density lipoprotein (HDL) cholesterol” here?
**A.** 50 µM

**Q.** For “DWFKAFYDKVAEKFKEAF (SEQ ID NO: 2)-NH2 (DWFKAFYDKVAEKFKEAF-NH2) [4F, 18 amino acid ApoA1 mimetic peptide]”, which Kd [6] is on record?
**A.** 1e-05 µM

**Q.** What about the nanofiber formation [1] of the same compound?
**A.** No nanofiber formation

**Q.** And the “localization to areas of atherosclerosis” value (LDLR KO mice [5])?
**A.** localized to areas of atherosclerosis

**Q.** What does the source list for “C16-V2A2 (SEQ ID NO: 8)-E2-KP5K (SEQ ID NO: 10)-AMVSEFLKQAWFIENEEQEYVQTVK SEQ ID NO: 7-NH2 [ROS-Ac2-26 PA]”?
**A.** Ac2-26 release from PA ([7]; 100 μM SIN-1, 24 hours, 37° C.): released Ac2-26; Ac2-26 cleavage without SIN-1 treatment ([7]; untreated): showed the presence of cleaved Ac2-26 peptide
